Data from the supplement of paper PMC10307832.

Assays:
Assay in all cases: relative viability (nuclei count vs DMSO), 5 days (fraction); higher = more cells survive
[1] = compound: C=C(c1ccc(C(=O)O)cc1)c1cc2c(cc1C)C(C)(C)CCC2(C)C [Bexarotene] + CC(C)C[C@H](NC(=O)[C@H](Cc1ccccc1)NC(=O)c1cnccn1)B(O)O [Bortezomib] (partner 0.002 µM)
In short: (§1)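 For relative viability, nuclei counts in treated wells were divided by those in vehicle wells. Lung cancer cell lines had been pin-tool dosed in 1536-well plates the day after seeding and cultured for 5 days, then fixed and stained in one step (final 0.05% Triton X-100, 1% formaldehyde, 1 ug/ml Hoechst) and imaged at 4×. Doses were one drug alone or a fixed anchor-drug dose plus five library-drug doses (not always all listed) in √10 steps, and values are duplicate-plate medians.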

[2] = compound: C=C(c1ccc(C(=O)O)cc1)c1cc2c(cc1C)C(C)(C)CCC2(C)C [Bexarotene] + CS(=O)(=O)CCNCc1ccc(-c2ccc3ncnc(Nc4ccc(OCc5cccc(F)c5)c(Cl)c4)c3c2)o1 [Lapatinib] (partner 2 µM)
In short: as §1

[3] = compound: C=C(c1ccc(C(=O)O)cc1)c1cc2c(cc1C)C(C)(C)CCC2(C)C [Bexarotene] + Nc1ncn([C@H]2C[C@H](O)[C@@H](CO)O2)c(=O)n1 [Decitabine] (partner 2 µM)
In short: as §1

[4] = compound: C=C(c1ccc(C(=O)O)cc1)c1cc2c(cc1C)C(C)(C)CCC2(C)C [Bexarotene] + NC(=O)Nc1cc(-c2cccc(F)c2)sc1C(=O)N[C@H]1CCCNC1 [AZD7762] (partner 0.2 µM)
In short: as §1

Cell Line | relative viability ([1]; first compound 0.08 µM) | relative viability ([1]; first compound 0.253 µM) | relative viability ([1]; first compound 0.8 µM) | relative viability ([1]; first compound 2.53 µM) | relative viability ([1]; first compound 8 µM) | relative viability ([2]; first compound 0.08 µM) | relative viability ([2]; first compound 0.253 µM) | relative viability ([2]; first compound 0.8 µM) | relative viability ([2]; first compound 2.53 µM) | relative viability ([2]; first compound 8 µM) | relative viability ([3]; first compound 0.08 µM) | relative viability ([3]; first compound 0.253 µM) | relative viability ([3]; first compound 0.8 µM) | relative viability ([3]; first compound 2.53 µM) | relative viability ([3]; first compound 8 µM) | relative viability ([4]; first compound 0.08 µM) | relative viability ([4]; first compound 0.253 µM) | relative viability ([4]; first compound 0.8 µM) | relative viability ([4]; first compound 2.53 µM) | relative viability ([4]; first compound 8 µM)
NCI-H520 | 0.805 | 0.588 | 0.518 | 0.385 | 0.534 | 1.12 | 0.793 | 0.577 | 0.875 | 0.71 | 0.499 | 0.473 | 0.552 | 0.52 | 0.51 |  |  |  |  | 
NCI-H661 | 0.807 | 0.807 | 0.803 | 0.81 | 0.761 | 0.432 | 0.554 | 0.477 | 0.516 | 0.513 | 0.606 | 0.542 | 0.559 | 0.509 | 0.496 |  |  |  |  | 
NCI-H1299 | 1.07 | 1.1 | 1.04 | 1.02 | 1.06 | 1.02 | 1.03 | 1.04 | 0.917 | 0.964 |  |  |  |  |  |  |  |  |  | 
NCI-H1395 |  |  |  |  |  | 1.05 | 0.935 | 0.926 | 0.902 | 0.997 | 0.801 | 0.686 | 0.72 | 0.713 | 0.731 | 0.399 | 0.432 | 0.39 | 0.407 | 0.39
NCI-H1563 | 0.9 | 0.814 | 0.741 | 0.83 | 0.98 | 1.09 | 0.945 | 0.799 | 0.903 | 0.891 |  |  |  |  |  |  |  |  |  | 
NCI-H1648 |  |  |  |  |  |  |  |  |  |  | 0.489 | 0.409 | 0.451 | 0.36 | 0.465 | 0.615 | 0.57 | 0.623 | 0.695 | 0.627
NCI-H1650 | 0.218 | 0.21 | 0.178 | 0.204 | 0.227 | 0.813 | 0.707 | 0.871 | 0.659 | 0.745 | 0.447 | 0.453 | 0.438 | 0.403 | 0.45 |  |  |  |  | 
NCI-H1703 | 0.254 | 0.253 | 0.258 | 0.227 | 0.27 | 1.14 | 1.11 | 0.802 | 0.834 | 0.762 |  |  |  |  |  | 0.157 | 0.128 | 0.127 | 0.115 | 0.119
NCI-H1793 |  |  |  |  |  | 0.647 | 0.68 | 0.647 | 0.568 | 0.519 | 0.54 | 0.434 | 0.563 | 0.469 | 0.328 | 0.442 | 0.68 | 0.511 | 0.505 | 0.504
NCI-H1944 |  |  |  |  |  | 1.17 | 0.934 | 0.961 | 0.929 | 0.768 | 0.493 | 0.472 | 0.504 | 0.464 | 0.383 | 0.738 | 0.733 | 0.749 | 0.694 | 0.739
NCI-H2009 | 1.16 | 1.27 | 1.13 | 1.08 | 1 | 0.794 | 1.14 | 1.06 | 1.06 | 0.999 | 0.404 | 0.394 | 0.373 | 0.404 | 0.364 |  |  |  |  | 
NCI-H2023 | 1.08 | 1.01 | 1.07 | 0.846 | 0.786 | 1.03 | 1.14 | 0.979 | 0.63 | 0.595 | 0.224 | 0.218 | 0.214 | 0.197 | 0.205 |  |  |  |  | 
NCI-H2170 |  |  |  |  |  | 0.264 | 0.245 | 0.275 | 0.305 | 0.273 | 0.438 | 0.463 | 0.446 | 0.417 | 0.465 | 0.877 | 0.796 | 0.812 | 0.775 | 0.735
NCI-H2228 | 1.08 | 1.3 | 1.05 | 1.11 | 0.841 | 1.55 | 0.935 | 0.763 | 1.17 | 0.909 |  |  |  |  |  |  |  |  |  | 
NCI-H2342 |  |  |  |  |  |  |  |  |  |  | 0.815 | 0.736 | 0.76 | 0.807 | 0.728 | 0.545 | 0.5 | 0.494 | 0.488 | 0.718
SK-LU-1 | 1.23 | 1.6 | 0.88 | 1.32 | 1.05 | 0.938 | 0.955 |  | 1 | 0.692 | 0.668 | 0.676 |  | 0.588 | 0.599 |  |  |  |  | 
SK-MES-1 |  |  |  |  |  | 0.512 | 0.45 | 0.565 | 0.558 | 0.509 | 0.43 | 0.379 | 0.423 | 0.294 | 0.3 |  |  |  |  | 
SW 900 |  |  |  |  |  |  |  |  |  |  | 0.463 | 0.397 | 0.498 | 0.448 | 0.462 | 0.652 | 0.511 | 0.453 | 0.518 | 0.454
SW 1573 | 0.896 | 0.923 | 0.955 | 0.803 | 0.763 | 1.09 | 1 | 1.1 | 0.919 | 0.916 | 0.505 | 0.43 | 0.482 | 0.452 | 0.363 |  |  |  |  | 
UMC-11 | 0.877 | 0.796 | 0.8 | 1.03 | 0.637 | 0.943 | 0.907 | 0.894 | 0.803 | 0.916 | 0.605 | 0.589 | 0.604 | 0.634 | 0.539 |  |  |  |  | 
